Columns and labels:
patients with RMS [1] = experiment: TEMSO Phase III trial: MRI outcomes; type: in vivo, humans; conditions: 108 weeks; for Brain parenchymal fraction, LS mean change from baseline / Brain parenchymal fraction, LS mean difference vs placebo / Brain parenchymal fraction, Relative reduction vs placebo: MMRM; for Number of Gd-enhancing T1 lesions per scan, Estimate / Number of unique active lesions per scan, Estimate: Poisson regression
Procedure: (§1) A treatment neurologist at each site was responsible for evaluating patient eligibility, supervision of study medication administration, recording and treating adverse events and assessing relapses, and monitoring safety assessments. An independent examining neurologist, blinded to treatment assignment, performed all EDSS scores and functional system assessments. EDSS scores were determined at screening, baseline, every 12 weeks following baseline visit, and at unscheduled relapse visits. MRI scans were performed at baseline and Weeks 24, 48, 72 and 108, and conducted according to the study protocol; image data were collected at clinical site MRI facilities.
(§2) The key secondary endpoint was to determine the effect of teriflunomide on delaying disability progression at Week 108 as assessed by changes in EDSS. Sustained disability progression was defined as a persisting increase from baseline of at least 1.0 point on the EDSS (or at least 0.5 for patients with a baseline EDSS score greater than 5.5) for at least 12 weeks. The key prespecified MRI endpoint was the effect of teriflunomide on burden of disease (total lesion volume). Other MRI endpoints included number of gadolinium (Gd)-enhancing T1 lesions, volume of T1 hypointense lesion components (‘black holes’), number of unique active lesions and brain atrophy. Patient-reported fatigue, assessed by the Fatigue Impact Scale (FIS), was an additional secondary endpoint.
Change from baseline in burden of disease and T1 hypointense lesion volume were analysed with a mixed-effect model with repeated measures (MMRM) using cubic root transformed data. Atrophy was analysed as change from baseline brain volume with the MMRM. The number of Gd-enhancing T1 lesions and number of unique active lesions per scan were analysed using a Poisson regression model with robust error variance. The percentage of patients free from lesions was analysed using a logistic regression model. MRI scans obtained within 14 days of systemic corticosteroid therapy were excluded from all analyses.
The MMRM model (mixed-effect model with repeated measures) included treatment, EDSS strata, region, visit, treatment-by-visit interaction, baseline value and baseline-by-visit interaction as covariates. The percentage of patients free from lesions was analysed by a logistic regression model that included treatment, number of lesions at baseline, EDSS strata and region as covariates. The Poisson regression model included treatment, number of lesions at baseline, EDSS strata and region as covariates, and log-transformed number of scans as an offset variable. The change from baseline in fatigue impact scale (FIS) total score was analyzed using MMRM.

patients with RMS [2] = experiment: TEMSO Phase III trial: relapses, disability progression, fatigue; type: in vivo, humans; conditions: for Hazard ratio for teriflunomide vs placebo (12-week sustained disability progression) / Hazard ratio for teriflunomide vs placebo (relapse): Cox model; for Patients with a 12-week sustained disability progression / Patients without relapse during 108 weeks: Kaplan-Meier estimate; for Fatigue Impact scale score, LS mean change from baseline: MMRM
Source text: They were required to have a score of no more than 5.5 on the Kurtzke Expanded Disability Status Scale (EDSS), a minimum of two clinical relapses in the previous 2 years or one relapse during the preceding year, but no relapses in the 60 days before randomization. During the 4 weeks prior to randomization, patients were required to be clinically stable and have signed both the informed consent form and informed consent for HIV testing.
as §1
For suspected relapses occurring between study visits, patients were required to attend the study site within 7 days of symptom onset for objective assessment by the examining neurologist. Relapses could be treated with intravenous corticosteroids at the investigator's discretion.
The primary study objective was to determine the effect of teriflunomide in reducing annualized relapse rate (ARR; the number of confirmed relapses per patient-year). A relapse was defined as the appearance of a new clinical sign or symptom or clinical worsening of a previous sign or symptom that had been stable for at least 30 days and persisted for a minimum of 24 hours in the absence of fever. Confirmed relapses required an increase of 1 point in at least two functional systems, or an increase of 2 points in at least one functional system (excluding bowel/bladder and cerebral function), or an increase of 0.5 points in EDSS score (1.0 for EDSS=0) from the previous clinically stable assessment.
as §2
A sample size of 360 randomized patients per group was required to provide 95% statistical power to detect relative risk reductions (RRR) of 25% in ARR after 2 years, assuming a placebo ARR of 0.74 and standard deviation of 0.626. All analyses followed an intention-to-treat (ITT) principle and all inferential analyses were performed at the 2-sided 5% level of significance. ARR was analyzed using a Poisson regression model with robust error variance. The model included the total number of confirmed relapses as the response variable, and treatment, baseline EDSS strata, and region as covariates, and log transformed duration of treatment as offset variable.
Disability progression was analyzed using a log-rank test with time to first disability progression as the dependent variable, treatment as test variable, and region and baseline EDSS score as strata variables. Kaplan-Meier estimates and curves of the cumulative incidence were used to assess the rate of disability progression in patients across time points. […]

[3] = 7 mg once daily oral vs placebo
[4] = 7 mg once daily oral, ITT population
[5] = 7 mg once daily oral, MMRM using cubic root transformed volume data
[6] = 14 mg once daily oral vs placebo
[7] = 14 mg once daily oral, ITT population
[8] = 14 mg once daily oral, MMRM using cubic root transformed volume data
[9] = 7 mg once daily oral, 108 weeks, ITT population
[10] = 7 mg once daily oral, 108 weeks, ITT population (N = 365)
[11] = 14 mg once daily oral, 108 weeks, ITT population
[12] = 14 mg once daily oral, 108 weeks, ITT population (N = 358)

SMILES: C/C(O)=C(\C#N)C(=O)Nc1ccc(C(F)(F)F)cc1 [teriflunomide, (Z)-2-cyano-3-hydroxy-but-2-enoic acid-(4′-trifluoromethylphenyl)-amide]
- brain atrophy from baseline vs placebo (patients with RMS [1]; 7 mg and 14 mg groups): No significant differences
- Number of Gd-enhancing T1 lesions per scan, Relative risk (patients with RMS [1]; [3]): 0.428
- Number of unique active lesions per scan, Relative risk (patients with RMS [1]; [3]): 0.523
- Number of Gd-enhancing T1 lesions per scan, Relative reduction vs placebo (patients with RMS [1]; 7 mg once daily oral): 57.2%
- Number of unique active lesions per scan, Relative reduction vs placebo (patients with RMS [1]; 7 mg once daily oral): 47.7%
- Burden of disease, Mean change from baseline (patients with RMS [1]; [4]): 1.308 mL
- Proportion of patients free from Gd-enhancing T1 lesions, % (patients with RMS [1]; [4]): (51.4) %
- T1 hypointense lesion volume, Mean change from baseline (patients with RMS [1]; [4]): 0.499 mL
- Brain parenchymal fraction, LS mean change from baseline (patients with RMS [1]; 7 mg once daily oral): −0.003
- Brain parenchymal fraction, LS mean difference vs placebo (patients with RMS [1]; 7 mg once daily oral): 0.001
- Brain parenchymal fraction, Relative reduction vs placebo (patients with RMS [1]; 7 mg once daily oral): 25.0%
- Burden of disease, LS mean change from baseline (patients with RMS [1]; [5]): 0.080 mL
- Burden of disease, LS mean difference vs placebo (patients with RMS [1]; [5]): -0.053 mL
- Burden of disease, Relative reduction vs placebo (patients with RMS [1]; [5]): 39.4%
- T1 hypointense lesion volume, LS mean change from baseline (patients with RMS [1]; [5]): 0.079 mL
- T1 hypointense lesion volume, LS mean difference vs placebo (patients with RMS [1]; [5]): -0.016 mL
- T1 hypointense lesion volume, Relative reduction vs placebo (patients with RMS [1]; [5]): 16.7%
- Number of Gd-enhancing T1 lesions per scan, Estimate (patients with RMS [1]; [4]): 0.570
- Number of unique active lesions per scan, Estimate (patients with RMS [1]; [4]): 1.288
- Number of Gd-enhancing T1 lesions per scan, Relative risk (patients with RMS [1]; [6]): 0.196
- Number of unique active lesions per scan, Relative risk (patients with RMS [1]; [6]): 0.306
- Burden of disease, Mean change from baseline (patients with RMS [1]; [7]): 0.723 mL
- T1 hypointense lesion volume, Mean change from baseline (patients with RMS [1]; [7]): 0.331 mL
- Brain parenchymal fraction, LS mean change from baseline (patients with RMS [1]; 14 mg once daily oral): −0.003
- Brain parenchymal fraction, LS mean difference vs placebo (patients with RMS [1]; 14 mg once daily oral): 0.001
- Brain parenchymal fraction, Relative reduction vs placebo (patients with RMS [1]; 14 mg once daily oral): 25.0%
- Burden of disease, LS mean change from baseline (patients with RMS [1]; [8]): 0.043 mL
- Burden of disease, LS mean difference vs placebo (patients with RMS [1]; [8]): -0.089 mL
- T1 hypointense lesion volume, LS mean change from baseline (patients with RMS [1]; [8]): 0.066 mL
- T1 hypointense lesion volume, LS mean difference vs placebo (patients with RMS [1]; [8]): -0.030 mL
- Number of Gd-enhancing T1 lesions per scan, Estimate (patients with RMS [1]; [7]): 0.261
- Number of unique active lesions per scan, Estimate (patients with RMS [1]; [7]): 0.754
- Hazard ratio for teriflunomide vs placebo (12-week sustained disability progression) (patients with RMS [2]; [9]): 0.763
- Hazard ratio for teriflunomide vs placebo (relapse) (patients with RMS [2]; [9]): 0.756
- Adjusted Annualized Relapse Rate (patients with RMS [2]; [9]): 0.370
- Hazard ratio reduction vs placebo (disability progression) (patients with RMS [2]; [9]): 23.7%
- No. of relapses 0 - patients (%) (patients with RMS [2]; [9]): (57.8) %
- No. of relapses 1 - patients (%) (patients with RMS [2]; [9]): (25.2) %
- No. of relapses 2 - patients (%) (patients with RMS [2]; [9]): (13.4) %
- No. of relapses 3 - patients (%) (patients with RMS [2]; [9]): (2.7) %
- No. of relapses ≧4 - patients (%) (patients with RMS [2]; [9]): (0.8) %
- Relative Reduction in Annualized Relapse rate vs placebo (patients with RMS [2]; [9]): 31.2%
- No. of relapses 0 - no. of patients (patients with RMS [2]; [10]): 211
- No. of relapses 1 - no. of patients (patients with RMS [2]; [10]): 92
- No. of relapses 2 - no. of patients (patients with RMS [2]; [10]): 49
- No. of relapses 3 - no. of patients (patients with RMS [2]; [10]): 10
- No. of relapses ≧4 - no. of patients (patients with RMS [2]; [10]): 3
- Patients with a 12-week sustained disability progression (patients with RMS [2]; [9]): 21.7%
- Fatigue Impact scale score, LS mean change from baseline (patients with RMS [2]; [9]): 2.3
- Patients without relapse during 108 weeks (patients with RMS [2]; [4]): 53.7%
- patients who discontinued treatment due to disease progression, compared with placebo (patients with RMS [2]; 14 mg group, p=0.02): lower number
- Hazard ratio for teriflunomide vs placebo (12-week sustained disability progression) (patients with RMS [2]; [11]): 0.702
- Hazard ratio for teriflunomide vs placebo (relapse) (patients with RMS [2]; [11]): 0.719
- Adjusted Annualized Relapse Rate (patients with RMS [2]; [11]): 0.369
- No. of relapses 0 - patients (%) (patients with RMS [2]; [11]): (60.6) %
- No. of relapses 1 - patients (%) (patients with RMS [2]; [11]): (24.0) %
- No. of relapses 2 - patients (%) (patients with RMS [2]; [11]): (9.2) %
- No. of relapses 3 - patients (%) (patients with RMS [2]; [11]): (4.5) %
- No. of relapses ≧4 - patients (%) (patients with RMS [2]; [11]): (1.7) %
- No. of relapses 0 - no. of patients (patients with RMS [2]; [12]): 217
- No. of relapses 1 - no. of patients (patients with RMS [2]; [12]): 86
- No. of relapses 2 - no. of patients (patients with RMS [2]; [12]): 33
- No. of relapses 3 - no. of patients (patients with RMS [2]; [12]): 16
- No. of relapses ≧4 - no. of patients (patients with RMS [2]; [12]): 6
- Patients with a 12-week sustained disability progression (patients with RMS [2]; [11]): 20.2%
- Fatigue Impact scale score, LS mean change from baseline (patients with RMS [2]; [11]): 3.8
- Patients without relapse during 108 weeks (patients with RMS [2]; [7]): 56.5%
- Patient-reported fatigue (FIS scores) (patients with RMS [2]; all treatment groups, during the study): remained stable

From patent US20130197080A1, “USE OF TERIFLUNOMIDE FOR TREATING MULTIPLE SCLEROSIS” (SANOFI, priority 2010, published 2013)
